Measurements as given in PubChem BioAssay AID1963960 (Molecular Pharmacology Branch, DTP, NCI, 2024).
pIC50: −log10 of the molar value.

Test system: MDA-MB-468 spheroids with HUVEC/MSC, viability
Assay: Anticancer human tumor MDA-MB-468 cell line growth inhibition [PI3K];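 note: spheroids exposed to agents for seven days before readout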;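 for viability, T/C: 100% = DMSO vehicle control viability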
Conditions: for viability, T/C: stronger effect = lower value; for pIC50: curve of first compound
Description: Combinatorial screen of targeted agents with the PI3K inhibitors inavolisib, alpelisib, duvelisib, and copanlisib in multi-cell type tumor spheroids
A high-throughput screen of multi-cell type tumor spheroids was designed to identify active combinations of targeted small molecules and PI3K pathway inhibitors. Complex spheroids include a stromal component modeled by human endothelial cells (HUVEC) and fibroblasts modeled by human mesenchymal stem cells (MSCs). The concentration ranges selected for each drug and investigational agent were based upon clinically achievable concentrations if the clinical Cmax of the agent was known.
Compounds. The drugs and investigational agents: inavolisib (NSC800729), alpelisib (NSC765974), duvelisib (NSC772469), copanlisib (NSC816437), ipatasertib (NSC767898), afuresertib (NSC778305), talazoparib (NSC767125), sapanisertib (NSC764658), selumetinib (NSC741078), tovorafenib (DAY101, NSC766906), vemurafenib (NSC761431), ravoxertinib (NSC781343), sotorasib (NSC818433), MRTX1133 (NSC 836407), abemaciclib (NSC 768073), palbociclib (NSC758247), venetoclax (NSC 766270), SY5609 (NSC837396), enzalutamide (NSC755605), and darolutamide (NSC825331), were obtained from the National Cancer Institute (NCI) Developmental Therapeutics Program Chemical Repository. The FDA-approved anticancer drug set is available from the NCI Developmental Therapeutics Program. […] The stock solutions were prepared in dimethyl sulfoxide (DMSO, Sigma-Aldrich, St. Louis, MO, cat. D2650) at 800-fold the tested concentration and stored at -70 degrees C prior to their use. All drugs and investigational agents were tested over a range starting from a high concentration at or near the clinical Cmax and decreasing in half-log increments. If the clinical Cmax for an agent had not been determined, the highest concentration tested was 10 microM.
Cell Culture. All cells were maintained in an incubator at 37 degrees C and 5% CO2 with 95% humidity. The PDC lines were cultured according to standard operating procedures established by the NCI PDMR (https://pdmr.cancer.gov/sops/default.htm). All PDCs were thawed and cultured in Matrigel-coated flasks prepared with a working solution of 1X Ham's F-12 nutrient mix, without supplementation (Invitrogen, Waltham, MA, cat. 11765054), 100 U/mL penicillin-streptomycin (Invitrogen, cat. 15140122), and 2.5% Matrigel (Corning Inc., Corning, NY, cat. 354248) for the first three passages. The 354836-022-R-J1-PDC, 475296-252-R-J1-PDC, and 997726-040-R-J2-PDC lines were cultured in 6A media, which includes advanced DMEM/F-12 (Thermo Fisher Scientific, cat. 12634028), 10 mM HEPES (Thermo Fisher Scientific, cat. 15630080), 1X GlutaMAX supplement (Thermo Fisher Scientific, cat. 35050061), 0.1 mg/mL primocin (InvivoGen, San Diego, CA, cat. ant-pm-2), 10% defined fetal bovine serum, heat inactivated (HyClone Laboratories Inc., Logan, UT, cat. SH30070.03HI), 50% L-WRN conditioned media (ATCC, cat. CRL-3276), 1.25 mM N-Acetyl-L-cysteine (Sigma-Aldrich, cat. A9165), 10 mM nicotinamide (Sigma-Aldrich, cat. N0636), 1X B-27 supplement (Thermo Fisher Scientific, cat. 17504044), 1X N-2 supplement (Thermo Fisher Scientific, cat. 17502048), and 10 microM Y-27632 dihydrochloride (Tocris Bioscience, Bristol, United Kingdom, cat. 1254). The 624824-186-R-J2-PDC line was cultured in 6C/Colon 1B media, which includes all 6A media components plus 50 ng/mL human EGF recombinant protein (Thermo Fisher Scientific, cat. PHG0311). […]

Question: How did the viability, T/C (compound 0.316 µM) turn out when `CCCS(=O)(=O)Nc1ccc(F)c(C(=O)c2c[nH]c3ncc(-c4ccc(Cl)cc4)cc23)c1F` was run?
Answer: 107% [middle of 4 runs]

Question: What about the viability, T/C (compound 1 µM) of the same compound?
Answer: 97.7% [middle of 4 runs]

Question: And the viability, T/C (compound 3.16 µM)?
Answer: 78.9% [middle of 4 runs]

Question: And the viability, T/C (compound 10 µM)?
Answer: 16.4% [middle of 4 runs]

Question: And the IC50 (curve of compound)?
Answer: 5.5 µM [middle of 4 runs]

Question: With `CNC(=O)c1ccc(N2C(=S)N(c3ccc(C#N)c(C(F)(F)F)c3)C(=O)C2(C)C)cc1F` + CC(Nc1ccc2c(c1)OCCn1cc(N3C(=O)OCC3C(F)F)nc1-2)C(N)=O as the compound, how does the pIC50 (second compound 0.00316 µM) read?
Answer: < 5.00

Question: And the pIC50 (second compound 0.01 µM)?
Answer: < 5.00

Question: What about the pIC50 (second compound 0.0316 µM) of the same compound?
Answer: < 5.00

Question: What about the pIC50 (second compound 0.1 µM) of the same compound?
Answer: < 5.00

Question: What about the pIC50 (second compound 0.316 µM) of the same compound?
Answer: < 5.00

Question: What about the pIC50 (second compound 1 µM) of the same compound?
Answer: < 5.00

Question: And the viability, T/C (second compound 0.00316 µM, first compound 0.0316 µM)?
Answer: 95.2%

Question: And the viability, T/C (second compound 0.00316 µM, first compound 0.1 µM)?
Answer: 94.6%

Question: What about the viability, T/C (second compound 0.00316 µM, first compound 0.316 µM) of the same compound?
Answer: 94.9%

Question: And the viability, T/C (second compound 0.00316 µM, first compound 1 µM)?
Answer: 98.9%

Question: What about the viability, T/C (second compound 0.00316 µM, first compound 3.16 µM) of the same compound?
Answer: 94.3%

Question: What about the viability, T/C (second compound 0.00316 µM, first compound 10 µM) of the same compound?
Answer: 76.7%

Question: What about the viability, T/C (second compound 0.01 µM, first compound 0.0316 µM) of the same compound?
Answer: 100%

Question: And the viability, T/C (second compound 0.01 µM, first compound 0.1 µM)?
Answer: 107%

Question: What about the viability, T/C (second compound 0.01 µM, first compound 0.316 µM) of the same compound?
Answer: 105%

Question: And the viability, T/C (second compound 0.01 µM, first compound 1 µM)?
Answer: 107%

Question: What about the viability, T/C (second compound 0.01 µM, first compound 3.16 µM) of the same compound?
Answer: 82.3%

Question: What about the viability, T/C (second compound 0.01 µM, first compound 10 µM) of the same compound?
Answer: 76.5%

Question: What about the viability, T/C (second compound 0.0316 µM, first compound 0.0316 µM) of the same compound?
Answer: 90.7%

Question: What about the viability, T/C (second compound 0.0316 µM, first compound 0.1 µM) of the same compound?
Answer: 105%

Question: And the viability, T/C (second compound 0.0316 µM, first compound 0.316 µM)?
Answer: 80.5%

Question: And the viability, T/C (second compound 0.0316 µM, first compound 1 µM)?
Answer: 98.5%

Question: And the viability, T/C (second compound 0.0316 µM, first compound 3.16 µM)?
Answer: 80.8%

Question: What about the viability, T/C (second compound 0.0316 µM, first compound 10 µM) of the same compound?
Answer: 62.2%

Question: What about the viability, T/C (second compound 0.1 µM, first compound 0.0316 µM) of the same compound?
Answer: 85.9%

Question: And the viability, T/C (second compound 0.1 µM, first compound 0.1 µM)?
Answer: 84.1%

Question: What about the viability, T/C (second compound 0.1 µM, first compound 0.316 µM) of the same compound?
Answer: 83.5%

Question: And the viability, T/C (second compound 0.1 µM, first compound 1 µM)?
Answer: 85.8%

Question: And the viability, T/C (second compound 0.1 µM, first compound 3.16 µM)?
Answer: 82.1%

Question: What about the viability, T/C (second compound 0.1 µM, first compound 10 µM) of the same compound?
Answer: 56.4%

Question: And the viability, T/C (second compound 0.316 µM, first compound 0.0316 µM)?
Answer: 95.6%

Question: And the viability, T/C (second compound 0.316 µM, first compound 0.1 µM)?
Answer: 84.6%

Question: What about the viability, T/C (second compound 0.316 µM, first compound 0.316 µM) of the same compound?
Answer: 75.8%

Question: What about the viability, T/C (second compound 0.316 µM, first compound 1 µM) of the same compound?
Answer: 95.2%

Question: What about the viability, T/C (second compound 0.316 µM, first compound 3.16 µM) of the same compound?
Answer: 94%

Question: And the viability, T/C (second compound 0.316 µM, first compound 10 µM)?
Answer: 57.1%

Question: What about the viability, T/C (second compound 1 µM, first compound 0.0316 µM) of the same compound?
Answer: 88%

Question: What about the viability, T/C (second compound 1 µM, first compound 0.1 µM) of the same compound?
Answer: 76.4%

Question: What about the viability, T/C (second compound 1 µM, first compound 0.316 µM) of the same compound?
Answer: 79.9%

Question: What about the viability, T/C (second compound 1 µM, first compound 1 µM) of the same compound?
Answer: 79.9%

Question: What about the viability, T/C (second compound 1 µM, first compound 3.16 µM) of the same compound?
Answer: 73.3%

Question: And the viability, T/C (second compound 1 µM, first compound 10 µM)?
Answer: 57.1%

Question: Which results are given for `Cn1cnc2c(F)c(Nc3ccc(Br)cc3Cl)c(C(=O)NOCCO)cc21` + CC(Nc1ccc2c(c1)OCCn1cc(N3C(=O)OCC3C(F)F)nc1-2)C(N)=O?
Answer: pIC50 (second compound 0.00316 µM): < 5.52; pIC50 (second compound 0.01 µM): < 5.52; pIC50 (second compound 0.0316 µM): < 5.52; pIC50 (second compound 0.1 µM): < 5.52; pIC50 (second compound 0.316 µM): < 5.52; pIC50 (second compound 1 µM): 5.82; viability, T/C (second compound 0.00316 µM, first compound 0.00949 µM): 83.2%; viability, T/C (second compound 0.00316 µM, first compound 0.03 µM): 78.1%; viability, T/C (second compound 0.00316 µM, first compound 0.0949 µM): 81.8%; viability, T/C (second compound 0.00316 µM, first compound 0.3 µM): 92.6%; viability, T/C (second compound 0.00316 µM, first compound 0.949 µM): 87.3%; viability, T/C (second compound 0.00316 µM, first compound 3 µM): 56.7%; viability, T/C (second compound 0.01 µM, first compound 0.00949 µM): 80%; viability, T/C (second compound 0.01 µM, first compound 0.03 µM): 88.9%; viability, T/C (second compound 0.01 µM, first compound 0.0949 µM): 79.9%; viability, T/C (second compound 0.01 µM, first compound 0.3 µM): 90.4%; viability, T/C (second compound 0.01 µM, first compound 0.949 µM): 73.9%; viability, T/C (second compound 0.01 µM, first compound 3 µM): 61.9%; viability, T/C (second compound 0.0316 µM, first compound 0.00949 µM): 103%; viability, T/C (second compound 0.0316 µM, first compound 0.03 µM): 86.4%; viability, T/C (second compound 0.0316 µM, first compound 0.0949 µM): 86.3%; viability, T/C (second compound 0.0316 µM, first compound 0.3 µM): 83%; viability, T/C (second compound 0.0316 µM, first compound 0.949 µM): 63.9%; viability, T/C (second compound 0.0316 µM, first compound 3 µM): 58.6%; viability, T/C (second compound 0.1 µM, first compound 0.00949 µM): 91.3%; viability, T/C (second compound 0.1 µM, first compound 0.03 µM): 73.5%; viability, T/C (second compound 0.1 µM, first compound 0.0949 µM): 70.5%; viability, T/C (second compound 0.1 µM, first compound 0.3 µM): 77.5%; viability, T/C (second compound 0.1 µM, first compound 0.949 µM): 66.7%; viability, T/C (second compound 0.1 µM, first compound 3 µM): 48.9%; viability, T/C (second compound 0.316 µM, first compound 0.00949 µM): 81.3%; viability, T/C (second compound 0.316 µM, first compound 0.03 µM): 78.6%; viability, T/C (second compound 0.316 µM, first compound 0.0949 µM): 64.4%; viability, T/C (second compound 0.316 µM, first compound 0.3 µM): 67%; viability, T/C (second compound 0.316 µM, first compound 0.949 µM): 64.1%; viability, T/C (second compound 0.316 µM, first compound 3 µM): 48.9%; viability, T/C (second compound 1 µM, first compound 0.00949 µM): 79.4%; viability, T/C (second compound 1 µM, first compound 0.03 µM): 63.7%; viability, T/C (second compound 1 µM, first compound 0.0949 µM): 77%; viability, T/C (second compound 1 µM, first compound 0.3 µM): 69.7%; viability, T/C (second compound 1 µM, first compound 0.949 µM): 55.1%; viability, T/C (second compound 1 µM, first compound 3 µM): 39%
